This is an account of results in US20100234417A1, “THYROTROPIN RELEASING HORMONE RECEPTOR-OREXIN RECEPTOR HETERO-DIMERS/-OLIGOMERS” (DIMERIX BIOSCIENCE PTY LTD., priority 2006, published 2010).

Ends that are not written are not given here. Bounds are passed on as bounds.

Holding throughout (format): cell-based
The target of assay [1] is T1, OxR2 (Homo sapiens, UniProt O43614).
T1 construct: expressed in transfected cells; host or cells: HEK293 (HEK293FT)
T1 sequence (O43614 1-444): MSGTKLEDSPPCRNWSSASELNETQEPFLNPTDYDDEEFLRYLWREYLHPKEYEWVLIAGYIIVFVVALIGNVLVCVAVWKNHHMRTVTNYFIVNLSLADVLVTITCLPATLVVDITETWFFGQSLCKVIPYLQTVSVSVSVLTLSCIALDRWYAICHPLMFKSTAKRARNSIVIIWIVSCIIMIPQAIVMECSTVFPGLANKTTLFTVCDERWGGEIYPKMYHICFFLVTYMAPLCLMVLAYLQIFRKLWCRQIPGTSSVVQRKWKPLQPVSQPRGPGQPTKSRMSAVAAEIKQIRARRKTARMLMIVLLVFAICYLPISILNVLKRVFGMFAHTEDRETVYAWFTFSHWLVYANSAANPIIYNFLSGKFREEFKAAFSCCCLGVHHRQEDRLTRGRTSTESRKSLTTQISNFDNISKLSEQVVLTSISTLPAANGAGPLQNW
Nature of the assay: BRET/eBRET beta-arrestin 2 recruitment to OxR2/Rluc or OxR2/Rluc8 without IG3 (pcDNA3). The conditions noted are these: OxR2/Rluc8 + barr2/Venus + pcDNA3; FIG. 18. The procedure: (§1) Briefly, referring to FIGS. 1 to 3, the IGs are provided in the form of the two receptors (TRHR and OxR). One of the two is attached to an RC (IG1-RC1, IG3). A second IG (IG2-RC2) is derived from a molecule that interacts with the receptors upon ligand binding (e.g. beta-arrestin, or a mutant thereof).
Cells were seeded in 6-well plates at a density of approximately 630,000 cells/well (HEK293FT) or approximately 150,000 cells/well (COS-7) and maintained at 37° C., 5% CO2 in Complete Media (DMEM containing 0.3 mg/ml glutamine, 100 IU/ml penicillin and 100 μg/ml streptomycin (Gibco)) supplemented with 10% fetal calf serum (FCS; Gibco). […] Filtered light emissions were sequentially measured for 3-5 s in each of the ‘donor wavelength window’ (400-475 nm) and ‘acceptor wavelength window’ (>500 nm for EGFP or 520-540 nm for EYFP, Topaz (TYFP) or Venus). […] In this case, data are shown as ‘fluorescence/luminescence’ being the ratio of light emission through the ‘acceptor wavelength window’ over the 400-475 nm emission for a particular cell sample. Unless otherwise stated, BRET signals were measured in 96-well microplates.
Referring now to FIG. 18, eBRET signals were measured from cells transiently co-expressing OxR2/Rluc8 and barr2/Venus either with HA-TRHR or pcDNA3.

Assay [2] has as its system thyrotropin releasing hormone receptor/orexin receptor hetero-dimer/-oligomer (TRHR with OxR1). Nature of the assay: eBRET: TRHR/Rluc + barr2/Venus + OxR1 as IG3 in HEK293 cells. To be noted: TRHR/Rluc + barr2/Venus + OxR1; 10^−6M OxA; FIG. 6. The procedure: as §1
(§2) Cells were seeded in 6-well plates at a density of approximately 630,000 cells/well (HEK293FT) or approximately 150,000 cells/well (COS-7) and maintained at 37° C., 5% CO2 in Complete Media (DMEM containing 0.3 mg/ml glutamine, 100 IU/ml penicillin and 100 μg/ml streptomycin (Gibco)) supplemented with 10% fetal calf serum (FCS; Gibco). Transient transfections were carried out 24 h after seeding using GeneJuice (Novagen) or Metafectene (Biontex) according to manufacturer instructions. 24 h post-transfection, cells were washed with PBS, detached using 0.05% trypsin/0.53 mM EDTA, resuspended in HEPES-buffered phenol red free Complete Media containing 5% FCS and added to a poly-L-lysine-coated white microplate (Nunc). 48 h post-transfection, eBRET assays were carried out following pre-incubation of cells with EnduRen™ (Promega) at a final concentration of 30-40 μM, at 37° C., 5% CO2 for 2 h. For original BRET studies, the HEPES-buffered phenol red free Complete Media was replaced with PBS and coelenterazine h (Molecular Probes) added to a final concentration of 5 μM immediately prior to commencing the assay. […] Filtered light emissions were sequentially measured for 3-5 s in each of the ‘donor wavelength window’ (400-475 nm) and ‘acceptor wavelength window’ (>500 nm for EGFP or 520-540 nm for EYFP, Topaz (TYFP) or Venus). The BRET signal observed between interacting proteins is normalized by subtracting the background BRET ratio. […] In this case, data are shown as ‘fluorescence/luminescence’ being the ratio of light emission through the ‘acceptor wavelength window’ over the 400-475 nm emission for a particular cell sample. Unless otherwise stated, BRET signals were measured in 96-well microplates. […]

For assay [3], the system named is thyrotropin releasing hormone receptor/orexin receptor hetero-dimer/-oligomer (TRHR with OxR2). The assay can be described thus: eBRET/BRET detection of TRHR-OxR2 association: TRHR/Rluc + tagged beta-arrestin + OxR2 as IG3 in HEK293 cells. The method, then: as §1
as §2, with “In the following examples, the first calculation will be used, unless the signal is described as the ‘ligand-induced BRET ratio’. […] In” for “In”
Cells not pretreated with antagonist were pretreated with PBS instead for the same amount of time. […]

The mark [4] stands for this setting: HEK293, TRHR/Rluc + barr2/Venus + OxR2, ligand 10^−6M, FIG. 4.

As to `NC(=O)[C@@H]1CCCN1C(=O)[C@H](Cc1cnc[nH]1)NC(=O)[C@@H]1CCC(=O)N1` [TRH, pGlu-His-Pro-NH2], the “ligand-induced eBRET signal” value in assay [1] was “No ligand-induced eBRET signal was observed”.
“OxA: orexin A; known orexin receptor modulator, used as IG3 ligand (modulator) (QPLPDCCRQKTCSCRLYELLHGAGNHAAGILTL; ends and bridges not checked; cysteine pairing not given here; UniProt O43612 34-66, looked up)”: the eBRET signal entry in assay [2] is “small eBRET signal”; in assay [3] (setting [4]), 0.07-0.08; in assay [3] (TRHR/Rluc + barr2/Venus + OxR2, 10^−6M OxA, FIG. 6), “eBRET signal was observed”. Further, the “time for eBRET signal to reach its level” value in assay [3] (setting [4]) is “up to 30 minutes”. Besides, the “time for eBRET signal to reach plateau” value in assay [3] (TRHR/Rluc + HA-OxR2 + EGFP/barr1 or EGFP/barr2, FIG. 7) is “more than 10 minutes”; in assay [3] (TRHR/Rluc + OxR2 + EGFP/barr1, FIG. 8), “more than 10 minutes”; in assay [3] (TRHR/Rluc + OxR2 + EGFP/barr1R169E, FIG. 8) it was not above 20 min; in assay [3] (TRHR/Rluc + OxR2 + EGFP/barr1 or EGFP/barr2, FIG. 5), “more than 10 minutes”. Besides, in assay [3] (TRHR/Rluc + barr2/Venus + OxR2, FIG. 12), the “dose-response Hill slope” value is on record as “greater than 1”.
